Experiment [1] deals with GDP-bound NRAS wild-type protein (Homo sapiens, UniProt P01111). The experiment is described as follows: Binding to NRAS by surface plasmon resonance (SPR), Single Cycle Kinetics. The settings on record: ratio of KD for GDP-bound NRAS wild-type protein to KD for KRAS, SPR. Background: Surface plasmon resonance follows binding to a sensor surface in real time, without labels.

The target in experiment [2] is GDP-bound HRAS wild-type protein (Homo sapiens, UniProt P01112). Kind of experiment: Binding to HRAS by surface plasmon resonance (SPR), Single Cycle Kinetics. To be noted: ratio of KD for GDP-bound HRAS wild-type protein to KD for KRAS, SPR.
Sequence of GDP-bound HRAS wild-type protein (P01112 whole entry): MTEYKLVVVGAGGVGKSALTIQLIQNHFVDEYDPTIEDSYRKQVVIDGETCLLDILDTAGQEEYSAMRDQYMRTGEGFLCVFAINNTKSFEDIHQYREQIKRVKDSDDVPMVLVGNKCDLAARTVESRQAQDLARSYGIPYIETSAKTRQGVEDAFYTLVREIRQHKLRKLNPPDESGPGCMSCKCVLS
Experiment [3] has as its target GDP-bound KRAS wild-type protein (Homo sapiens, UniProt P01116). Kind of experiment: Binding to KRAS by surface plasmon resonance (SPR), Single Cycle Kinetics. The settings on record: SPR, Single Cycle Kinetics, GDP-bound KRAS wild-type protein; read-out: KRAS KD.
Experiment [4] deals with human lung cancer strain NCI-H441. The experiment is described as follows: cells. The settings on record: NCI-H441, 96 h, read-out: NCI-H441 IC50 (nM), NCI-H441 cell proliferation, 4 days, CellTiter-Glo. A general note: In ATP-based viability assays light output follows the ATP content of the culture.

Here are results for 14 compounds from US20240158446A1, “CYCLIC COMPOUND HAVING SELECTIVE INHIBITORY ACTION ON KRAS OVER HRAS AND NRAS” (CHUGAI SEIYAKU KABUSHIKI KAISHA, priority 2021, published 2024).

pKd: −log10 of the molar value.
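For IC50 in this document: cell proliferation inhibition after four days measured by CellTiter-Glo.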

Sequence of GDP-bound NRAS wild-type protein (P01111 whole entry): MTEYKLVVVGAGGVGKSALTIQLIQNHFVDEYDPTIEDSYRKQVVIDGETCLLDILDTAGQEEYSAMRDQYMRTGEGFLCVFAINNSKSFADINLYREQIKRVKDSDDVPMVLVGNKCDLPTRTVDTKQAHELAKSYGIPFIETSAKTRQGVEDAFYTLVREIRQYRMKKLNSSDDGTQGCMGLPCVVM
Sequence of GDP-bound KRAS wild-type protein (P01116 whole entry): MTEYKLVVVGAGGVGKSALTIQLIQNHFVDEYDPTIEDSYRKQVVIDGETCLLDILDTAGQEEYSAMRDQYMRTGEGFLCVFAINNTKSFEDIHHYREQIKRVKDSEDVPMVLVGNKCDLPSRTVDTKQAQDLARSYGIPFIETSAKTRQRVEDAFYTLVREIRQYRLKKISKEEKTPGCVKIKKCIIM

By pKd is commonly meant the negative decadic logarithm of the Kd, by convention in mol/L. For `CCO[C@@H]1C[C@H]2C(=O)NC3(CCC3)C(=O)N(C)[C@@H](C3CCCC3)C(=O)N3CCC[C@@H]3CC(=O)N(C)[C@@H](CC3CC3)C(=O)N[C@@H]([C@@H](C)CC)C(=O)N(C)CC(=O)N(C)[C@H]3C/C=C\CCN(C3=O)[C@@H](Cc3ccc(C(F)(F)F)cc3)C(=O)N(C)CC(=O)N[C@@H](CCc3cc(F)c(C(F)(F)F)c(F)c3)C(=O)N2C1` [PP1613], in experiment [1], the “NRAS/KRAS (KD ratio)” value was “B (a compound having 3 or more and less than 10 is denoted as B)”. Besides, the “HRAS/KRAS (KD ratio)” value in experiment [2] is “B (a compound having 3 or more and less than 10 is denoted as B)”. The pKd in experiment [3] was 9.82. In addition, the IC50 in experiment [4] was found to be 14.7 nM.
As to `CCC[C@H]1C(=O)N[C@@H]([C@@H](C)CC)C(=O)N(CCC)CC(=O)N(C)[C@H]2C/C=C\CCN(C2=O)[C@@H](Cc2ccc(C(F)(F)F)cc2)C(=O)N(C)CC(=O)N[C@@H](CCc2cc(F)c(C(F)(F)F)c(F)c2)C(=O)N2C[C@H](OCC)C[C@H]2C(=O)NC2(CCC2)C(=O)N(C)[C@@H](C2CCCC2)C(=O)N(C)[C@H](C(=O)N(C)C)CC(=O)N1C` [PP1767], the “NRAS/KRAS (KD ratio)” value in experiment [1] was “A (a compound having 10 or more and less than 20 is denoted as A)”. Moreover, in experiment [2], the “HRAS/KRAS (KD ratio)” value was “B (a compound having 3 or more and less than 10 is denoted as B)”. Also, the pKd in experiment [3] is 9.47. Further, the IC50 in experiment [4] was determined as 17.9 nM.
`CC[C@H](C)[C@@H]1NC(=O)[C@H](CC2CC2)N(C)C(=O)C[C@@H](C(=O)N(C)C)N(C)C(=O)[C@H](C2CCCC2)N(C)C(=O)C2(CCC2)NC(=O)[C@@H]2C[C@@H](C)CN2C(=O)[C@H](CCc2ccc(C(F)(F)F)c(OC)c2)NC(=O)CN(C)C(=O)[C@H](Cc2ccc(C)cc2)N2CC/C=C\C[C@@H](C2=O)N(C)C(=O)CN(C)C1=O` [PP1863]: in experiment [1], the “NRAS/KRAS (KD ratio)” value was “A (a compound having 10 or more and less than 20 is denoted as A)”. In addition, the “HRAS/KRAS (KD ratio)” value in experiment [2] is “A (a compound having 10 or more and less than 20 is denoted as A)”. In experiment [3], the pKd was 9.89. Moreover, the IC50 in experiment [4] stood at 88.8 nM.
As for `CCCN(C)C(=O)[C@@H]1CC(=O)N(C)[C@@H](COC)C(=O)N[C@@H]([C@@H](C)CC)C(=O)N(C)CC(=O)N(C)[C@H]2C/C=C\CCN(C2=O)[C@@H](Cc2ccc(C(F)(F)F)cc2)C(=O)N(C)CC(=O)N[C@@H](CCc2cc(F)c(C(F)(F)F)c(F)c2)C(=O)N2C[C@H](F)C[C@H]2C(=O)NC2(CC(C)(C)C2)C(=O)N(C)[C@@H](C2CCCC2)C(=O)N1C` [PP1696], the “NRAS/KRAS (KD ratio)” value in experiment [1] was “AA (a compound having 20 or more is denoted as AA)”. In experiment [2], the “HRAS/KRAS (KD ratio)” value is “A (a compound having 10 or more and less than 20 is denoted as A)”. Besides, the pKd in experiment [3] was 10.39. Besides, the IC50 in experiment [4] worked out at 2.9 nM.
As to `CCCC[C@H]1C(=O)N[C@@H]([C@@H](C)CC)C(=O)N(C)CC(=O)N(C)[C@H]2C/C=C\CCN(C2=O)[C@@H](Cc2ccc(C(F)(F)F)cc2)C(=O)N(C)CC(=O)N[C@@H](CCc2cc(F)c(C(F)(F)F)c(F)c2)C(=O)N2C[C@@H](C)C[C@H]2C(=O)NC2(CC(C)(C)C2)C(=O)N(C)[C@@H](C2CCCC2)C(=O)N(C)[C@H](C(=O)N(C)C)CC(=O)N1C` [PP1661], in experiment [1], the “NRAS/KRAS (KD ratio)” value was “A (a compound having 10 or more and less than 20 is denoted as A)”. The “HRAS/KRAS (KD ratio)” value in experiment [2] was “A (a compound having 10 or more and less than 20 is denoted as A)”. In experiment [3], the pKd is 9.72. Besides, the IC50 in experiment [4] turned out to be 5.7 nM.
In the case of `CCC[C@H]1C(=O)N[C@@H]([C@@H](C)CC)C(=O)N(C)CC(=O)N(C)[C@H]2C/C=C\CCN(C2=O)[C@@H](Cc2ccc(C)cc2)C(=O)N(C)CC(=O)N[C@@H](CCc2ccc(C(F)(F)F)c(OC)c2)C(=O)N2C[C@H](C)C[C@H]2C(=O)NC2(CC(C)(C)C2)C(=O)N(C)[C@@H](C2CCCC2)C(=O)N(C)[C@H](C(=O)N(C)CC)CC(=O)N1C` [PP1891], the “NRAS/KRAS (KD ratio)” value in experiment [1] is “A (a compound having 10 or more and less than 20 is denoted as A)”. Moreover, the “HRAS/KRAS (KD ratio)” value in experiment [2] was “A (a compound having 10 or more and less than 20 is denoted as A)”. Besides, in experiment [3], the negative-log Kd (pKd) is 9.54. Further, the IC50 in experiment [4] was determined as 2.6 nM.
As to `CCCN(C)C(=O)[C@@H]1CC(=O)N(C)[C@@H](C2CC2)C(=O)N[C@@H]([C@@H](C)CC)C(=O)N(C)CC(=O)N(C)[C@H]2C/C=C\CCN(C2=O)[C@@H](Cc2ccc(C(F)(F)F)cc2)C(=O)N(C)CC(=O)N[C@@H](CCc2cc(F)c(C(F)(F)F)c(F)c2)C(=O)N2C[C@H](OCC)C[C@H]2C(=O)NC2(CCC2)C(=O)N(C)[C@@H](C2CCCC2)C(=O)N1C` [PP1994], in experiment [1], the “NRAS/KRAS (KD ratio)” value was “AA (a compound having 20 or more is denoted as AA)”. Further, in experiment [2], the “HRAS/KRAS (KD ratio)” value is “A (a compound having 10 or more and less than 20 is denoted as A)”. Besides, the pKd in experiment [3] is 10.00. The IC50 in experiment [4] worked out at 22.4 nM.
`CC[C@H](C)[C@@H]1NC(=O)[C@H](CC)N(C)C(=O)C[C@@H](C(=O)N(C)C)N(C)C(=O)[C@H](C2CCCC2)N(C)C(=O)C2(CCCC2)N(C)C(=O)[C@@H]2CCCN2C(=O)[C@H](CCc2cc(F)c(C(F)(F)F)c(F)c2)NC(=O)CN(C)C(=O)[C@H](Cc2ccc(C(F)(F)F)cc2)N2CC/C=C\C[C@@H](C2=O)N(C)C(=O)CN(C)C1=O` [PP1805]: the “NRAS/KRAS (KD ratio)” value in experiment [1] was “A (a compound having 10 or more and less than 20 is denoted as A)”. Further, the “HRAS/KRAS (KD ratio)” value in experiment [2] is “A (a compound having 10 or more and less than 20 is denoted as A)”. Also, the pKd in experiment [3] was 10.15. The IC50 in experiment [4] came out at 7 nM.
For `CC[C@H](C)[C@@H]1NC(=O)[C@H](C2CCC2)N(C)C(=O)C[C@@H](C(=O)N(C)CC)N(C)C(=O)[C@H](C2CCCC2)N(C)C(=O)C2(CC(C)(C)C2)NC(=O)[C@@H]2C[C@H](C)CN2C(=O)[C@H](CCc2ccc(C(F)(F)F)c(OC)c2)NC(=O)CN(C)C(=O)[C@H](Cc2ccc(C(F)(F)F)cc2)N2CC/C=C\C[C@@H](C2=O)N(C)C(=O)CN(C)C1=O` [PP2009], in experiment [1], the “NRAS/KRAS (KD ratio)” value was “A (a compound having 10 or more and less than 20 is denoted as A)”. Moreover, the “HRAS/KRAS (KD ratio)” value in experiment [2] is “A (a compound having 10 or more and less than 20 is denoted as A)”. Besides, the negative-log Kd (pKd) in experiment [3] is 9.72. Further, the IC50 in experiment [4] stood at 19.7 nM.
Regarding `CCO[C@@H]1C[C@H]2C(=O)NC3(CC(C)(C)C3)C(=O)N(C)[C@@H](C3CCCC3)C(=O)N(C)[C@H](C(=O)N(C)CC)CC(=O)N(C)[C@@H](COC)C(=O)N[C@@H]([C@@H](C)CC)C(=O)N(C)CC(=O)N(C)[C@H]3C/C=C\CCN(C3=O)[C@@H](Cc3ccc(C(F)(F)F)cc3)C(=O)N(C)CC(=O)N[C@@H](CCc3ccc(C(F)(F)F)c(OC)c3)C(=O)N2C1` [PP1679], the “NRAS/KRAS (KD ratio)” value in experiment [1] is “A (a compound having 10 or more and less than 20 is denoted as A)”. For the same compound, the “HRAS/KRAS (KD ratio)” value in experiment [2] was “A (a compound having 10 or more and less than 20 is denoted as A)”. Further, the pKd in experiment [3] is 10.19. Further, the IC50 in experiment [4] was 3.1 nM.
On to `CCO[C@@H]1C[C@H]2C(=O)NC3(CC(F)(F)C3)C(=O)N(C)[C@@H](C(CC)CC)C(=O)N(C)[C@H](CC)CC(=O)N(C)[C@@H](CC)C(=O)N[C@@H]([C@@H](C)CC)C(=O)N(C)CC(=O)N(C)[C@H]3C/C=C\CCN(C3=O)[C@@H](Cc3ccc(C(F)(F)F)cc3)C(=O)N(C)CC(=O)N[C@@H](CCc3cc(F)c(C(F)(F)F)c(F)c3)C(=O)N2C1` [PP1626], for which the “NRAS/KRAS (KD ratio)” value in experiment [1] is “A (a compound having 10 or more and less than 20 is denoted as A)”. For the same compound, in experiment [2], the “HRAS/KRAS (KD ratio)” value was “A (a compound having 10 or more and less than 20 is denoted as A)”. Moreover, the pKd in experiment [3] was 8.52. The IC50 in experiment [4] worked out at 108 nM.
On to `CC[C@H](C)[C@@H]1NC(=O)[C@H](CC)N(C)C(=O)C[C@@H](C(=O)N(C)C)N(C)C(=O)[C@H](C2CCCC2)N(C)C(=O)C2(CCC2)NC(=O)[C@@H]2CCCN2C(=O)[C@H](CCc2cc(C)c(Cl)c(C)c2)NC(=O)CN(C)C(=O)[C@H](Cc2ccc(C(F)(F)F)cc2)N2CC/C=C\C[C@@H](C2=O)N(C)C(=O)CN(C)C1=O` [PP1822], for which the “NRAS/KRAS (KD ratio)” value in experiment [1] is “A (a compound having 10 or more and less than 20 is denoted as A)”. Moreover, the “HRAS/KRAS (KD ratio)” value in experiment [2] is “B (a compound having 3 or more and less than 10 is denoted as B)”. In addition, the pKd in experiment [3] is 8.96. Further, the IC50 in experiment [4] came to 107 nM.
Regarding `CC[C@H](C)[C@@H]1NC(=O)[C@H](CC(C)C)N(C)C(=O)C[C@@H](C(=O)N(C)C)N(C)C(=O)[C@H](C2CCCC2)N(C)C(=O)C2(CC(C)(C)C2)NC(=O)[C@@H]2CCCN2C(=O)[C@H](CCc2cc(F)c(C(F)(F)F)c(F)c2)NC(=O)CN(C)C(=O)[C@H](Cc2ccc(C(F)(F)F)cc2)N2CC/C=C\C[C@@H](C2=O)N(C)C(=O)CN(C)C1=O` [PP1727], the “NRAS/KRAS (KD ratio)” value in experiment [1] was “A (a compound having 10 or more and less than 20 is denoted as A)”. In addition, in experiment [2], the “HRAS/KRAS (KD ratio)” value is “A (a compound having 10 or more and less than 20 is denoted as A)”. Also, the pKd in experiment [3] is 9.89. In addition, the IC50 in experiment [4] turned out to be 4 nM.
`CCO[C@@H]1C[C@H]2C(=O)NC3(CC(C)(C)C3)C(=O)N(C)[C@@H](C3CCCC3)C(=O)N(C)[C@H](C(=O)N(CC)CC)CC(=O)N(C)[C@@H](CC)C(=O)N[C@@H]([C@@H](C)CC)C(=O)N(C)CC(=O)N(C)[C@H]3C/C=C\CCN(C3=O)[C@@H](Cc3ccc(C)cc3)C(=O)N(C)CC(=O)N[C@@H](CCc3ccc(C(F)(F)F)c(OC)c3)C(=O)N2C1` [PP1881]: in experiment [1], the “NRAS/KRAS (KD ratio)” value is “A (a compound having 10 or more and less than 20 is denoted as A)”. Also, the “HRAS/KRAS (KD ratio)” value in experiment [2] is “A (a compound having 10 or more and less than 20 is denoted as A)”. In addition, in experiment [3], the pKd was 9.54. Besides, the IC50 in experiment [4] came to 16.7 nM.
